Target: T1, human FXa (Homo sapiens, UniProt P00742)
T1 construct: FXa solution (human FXa, Haematologic Technologies Inc., Essec Junction, Vt., USA); purchased Haematologic Technologies Inc
Assay: Measurement of Factor Xa inhibition (chromogenic substrate S-2765 method)
Format: biochemical
Conditions: inhibition of Factor Xa activity, screen a), specimen results
Method: a) Measurement of Factor Xa Inhibition
The FXa inhibitor potency was measured with a chromogenic substrate method, in a Plato 3300 robotic microplate processor (Rosys AG, CH-8634 Hombrechtikon, Switzerland), using 96-well, half-volume microtiter plates (Costar, Cambridge, Mass., USA; Cat No 3690). Stock solutions of test substance in DMSO (72 μL), 10 mmol/L, alternatively 1 mmol/L were diluted serially 1:3 (24+48 μL) with DMSO to obtain ten different concentrations, which were analyzed as samples in the assay, together with controls and blanks. As control sample melagatran was analysed. The dilutions of each test substance were analyzed consecutively, row-wise on the microtiter plate, with wash-cycles between substances to avoid cross-contamination. […] The final assay concentrations were: test substance 0.0068-133, respectively 0.00068-13.3 μmol/L, S-2765 0.40 mmol/L (KM=0.25 mmol/L) and FXa […]. The linear absorbance increase at 405 nm during 40 min incubation at 37° C. was used for calculation of percent inhibition for the test samples, as compared to references without inhibitor and/or enzyme. […]

T1 sequence (P00742 235-488 limits assumed): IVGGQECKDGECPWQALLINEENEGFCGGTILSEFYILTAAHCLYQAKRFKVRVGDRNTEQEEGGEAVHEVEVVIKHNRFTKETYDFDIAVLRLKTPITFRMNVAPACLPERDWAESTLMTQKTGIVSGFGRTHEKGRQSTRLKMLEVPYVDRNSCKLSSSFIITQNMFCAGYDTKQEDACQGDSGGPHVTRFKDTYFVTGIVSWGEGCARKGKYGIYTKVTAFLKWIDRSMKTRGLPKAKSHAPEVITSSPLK
T1 sequence (P00742 41-179 partner limits assumed): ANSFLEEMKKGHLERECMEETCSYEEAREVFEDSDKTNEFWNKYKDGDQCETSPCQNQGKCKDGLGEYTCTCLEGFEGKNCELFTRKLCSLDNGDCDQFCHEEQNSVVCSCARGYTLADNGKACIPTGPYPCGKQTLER

Row | IC50 | Compound
1 | 4.8 nM | Cn1nc(N2CCC(C(=O)N3CCN(S(=O)(=O)c4ccc5c(Cl)c[nH]c5c4)C(O)C3)CC2)ccc1=O (centres unmarked) [Example 3, 6-{4-[4-(3-Chloro-1H-indole-6-sulfonyl)-3-hydroxy-piperazine-1-carbonyl]-piperidin-1-yl}-2-methyl-2H-pyridazin-3-one]
2 | 98 nM | Cc1cc(N2CCC(C(=O)N3CCN(S(=O)(=O)c4ccc5c(Cl)c[nH]c5c4)CC3)CC2)c[nH]c1=O [Example 6, 4-[4-(3-Chloro-1H-indole-6-sulfonyl)-piperazine-1-carbonyl]-5′-methyl-3,4,5,6-tetrahydro-2H,1′H-[1,3′]bipyridinyl-6′-one]
